Experiment: pH
Assay type: physicochemical
Conditions: free propionic acid, stated in the discussion

CCC(=O)O [free propionic acid, propionic acid]
pH: less than 2

— US7169424B2, “Mold inhibitor having reduced corrosiveness” (Kemin Industries, Inc., priority 2003, dated 2007)
